Measured values taken from patent publication US20020028918A1, “Styryl dyes” (KABUSHIKI KAISHA HAYASHIBARA SEIBUTSU KAGAKU KENKYUJO, priority 2000, published 2002).

How the values were obtained:
[1] = Light resistance of styryl dye thin layer under xenon lamp exposure; format: physicochemical; conditions: thin layer on glass, 500 W xenon lamp 25 min, transmittance at 600 nm
Experimental: Light-resistance Improvement of Styryl Dyes
Thereafter, in the usual manner, a prescribed amount of the resulting solution was dropped on either surface of a polished glass substrate, 5 cm×5 cm, while the glass substrate was rotated at a rotation rate of 1,000 rpm for one minute to uniformly coat the solution thereupon, and sequentially blown with hot air and cold air to dry the coated solution.
The resulting glass substrates coated with the styryl dyes were measured for transmittance (T0) at a wavelength of 600 nm, and then exposed with light for 25 min using a 500 W xenon lamp. Immediately after that, the resulting substrates were remeasured for transmittance (T) at a wavelength of 600 nm, and the transmittance of T and T0 dye substrated for the Equation 1 to calculate the residual percentage (%). In parallel, control systems, which 15 (mg) of the conventional compound represented by Chemical Formula 44 was dissolved to TFP with or without two mg of the azo organic metal complex represented by Chemical Formula 38 as a light-resistant improver, were provided and treated similarly as above. [formula]

[2] = Thermal property by DTA and TGA (decomposition point)
Text: Thermal Property of Cyanine Dye
An adequate amount of any one of the styryl dyes of the present invention in Table 1 as test specimens was placed in a vessel and subjected to conventional differential thermal analysis (hereinafter abbreviated as “DTA”) and thermogravimetric analysis (hereinafter abbreviated as “TGA”) using “MODEL TG/DTA 220”, a digital thermo analyzer commercialized by Seiko Instruments Inc., Tokyo, Japan, to determine their melting points, i.e., temperatures at which the styryl dyes as test specimens begin to absorb heat on TGA, and decomposition points, i.e., temperatures at which the styryl dyes as test specimens begin to lose their weight on DTA. In parallel, the conventional related compound represented by Chemical Formula 44 was analyzed similarly as above. […] In TGA and DTA, the environmental temperature was set to an increasing temperature mode at a rate of 10° C./min.

CN(C)c1ccc(C=CC2=[N+](C)c3ccc(Cl)cc3C2(C)C)cc1.Cc1ccc(S(=O)(=O)[O-])cc1 [Chemical Formula 44]
Residual percentage of dye (%) ([1]; no light-resistant improver added (Formula 26 is itself combined with azo organic metal complex anion)): 3.2%
Residual percentage of dye (%) ([1]; with addition of the azo organic metal complex of Chemical Formula 38): 89.5%
Decomposition point (° C.) ([2]; DTA/TGA, MODEL TG/DTA 220, temperature increasing at 10° C./min): 236.1 °C
Decomposition behaviour around the decomposition point ([2]; TGA/DTA, 10° C./min): very slowly decomposed at around the decomposition point
